Consider 17 compounds from ChEMBL document CHEMBL1201862, “PubChem BioAssay data set” (2004).

Active and inactive are the calls of the source.

As a reminder, the AC50 is the midpoint of the concentration-response curve, whichever way the signal moves. A word on the IC50: it is the concentration needed to halve the response being measured. As a reminder, the EC50 is the concentration giving half of the maximal effect.

Among the targets are Cytochrome P450 3A4 (Homo sapiens, UniProt P08684); Cytochrome P450 2D6 (Homo sapiens, UniProt P10635); Cytochrome P450 2C9 (Homo sapiens, UniProt P11712).
A further data set has as its target T1, X-box-binding protein 1 (Homo sapiens, UniProt P17861).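 Further: confirmatory dose-response counter-screen serving a CHOP assay.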
T1 sequence (P17861 whole entry): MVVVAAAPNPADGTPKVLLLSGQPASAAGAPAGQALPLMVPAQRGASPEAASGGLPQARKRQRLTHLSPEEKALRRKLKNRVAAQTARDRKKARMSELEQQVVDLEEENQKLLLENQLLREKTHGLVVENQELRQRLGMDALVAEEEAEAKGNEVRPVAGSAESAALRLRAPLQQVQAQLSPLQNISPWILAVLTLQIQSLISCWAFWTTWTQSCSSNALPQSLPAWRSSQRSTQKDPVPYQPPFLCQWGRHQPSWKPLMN
It is filed as functional, Cricetulus griseus.

Data set [1] relates to HEK293. In words: HEK cell cytotoxicity by LDH release, dose response, cytotoxicity control for IDE activator project, fluorescence, HEK cells (AID 588440).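 Further: cytotoxicity by LDH release measuring loss of membrane integrity.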 It counts as functional, cell-based. As to conditions: Homo sapiens.
Data set [2] concerns HEK293. Kind of data set: optical interference in Abeta FP readout, dose response, artefact control for IDE activator project, biochemical, fluorescence polarization (AID 588442). It counts as functional, cell-based. As to conditions: Homo sapiens. In general terms: Fluorescence polarisation rises when a labelled molecule tumbles more slowly, as on binding a larger partner.

In data set [3] the target is T2, Voltage-gated N-type calcium channel alpha-1B subunit/Amyloid beta A4 precursor protein-binding family A member 1 (Homo sapiens, UniProt Q00975+Q02410). It counts as protein assay.
T2 sequence (Q00975 whole entry): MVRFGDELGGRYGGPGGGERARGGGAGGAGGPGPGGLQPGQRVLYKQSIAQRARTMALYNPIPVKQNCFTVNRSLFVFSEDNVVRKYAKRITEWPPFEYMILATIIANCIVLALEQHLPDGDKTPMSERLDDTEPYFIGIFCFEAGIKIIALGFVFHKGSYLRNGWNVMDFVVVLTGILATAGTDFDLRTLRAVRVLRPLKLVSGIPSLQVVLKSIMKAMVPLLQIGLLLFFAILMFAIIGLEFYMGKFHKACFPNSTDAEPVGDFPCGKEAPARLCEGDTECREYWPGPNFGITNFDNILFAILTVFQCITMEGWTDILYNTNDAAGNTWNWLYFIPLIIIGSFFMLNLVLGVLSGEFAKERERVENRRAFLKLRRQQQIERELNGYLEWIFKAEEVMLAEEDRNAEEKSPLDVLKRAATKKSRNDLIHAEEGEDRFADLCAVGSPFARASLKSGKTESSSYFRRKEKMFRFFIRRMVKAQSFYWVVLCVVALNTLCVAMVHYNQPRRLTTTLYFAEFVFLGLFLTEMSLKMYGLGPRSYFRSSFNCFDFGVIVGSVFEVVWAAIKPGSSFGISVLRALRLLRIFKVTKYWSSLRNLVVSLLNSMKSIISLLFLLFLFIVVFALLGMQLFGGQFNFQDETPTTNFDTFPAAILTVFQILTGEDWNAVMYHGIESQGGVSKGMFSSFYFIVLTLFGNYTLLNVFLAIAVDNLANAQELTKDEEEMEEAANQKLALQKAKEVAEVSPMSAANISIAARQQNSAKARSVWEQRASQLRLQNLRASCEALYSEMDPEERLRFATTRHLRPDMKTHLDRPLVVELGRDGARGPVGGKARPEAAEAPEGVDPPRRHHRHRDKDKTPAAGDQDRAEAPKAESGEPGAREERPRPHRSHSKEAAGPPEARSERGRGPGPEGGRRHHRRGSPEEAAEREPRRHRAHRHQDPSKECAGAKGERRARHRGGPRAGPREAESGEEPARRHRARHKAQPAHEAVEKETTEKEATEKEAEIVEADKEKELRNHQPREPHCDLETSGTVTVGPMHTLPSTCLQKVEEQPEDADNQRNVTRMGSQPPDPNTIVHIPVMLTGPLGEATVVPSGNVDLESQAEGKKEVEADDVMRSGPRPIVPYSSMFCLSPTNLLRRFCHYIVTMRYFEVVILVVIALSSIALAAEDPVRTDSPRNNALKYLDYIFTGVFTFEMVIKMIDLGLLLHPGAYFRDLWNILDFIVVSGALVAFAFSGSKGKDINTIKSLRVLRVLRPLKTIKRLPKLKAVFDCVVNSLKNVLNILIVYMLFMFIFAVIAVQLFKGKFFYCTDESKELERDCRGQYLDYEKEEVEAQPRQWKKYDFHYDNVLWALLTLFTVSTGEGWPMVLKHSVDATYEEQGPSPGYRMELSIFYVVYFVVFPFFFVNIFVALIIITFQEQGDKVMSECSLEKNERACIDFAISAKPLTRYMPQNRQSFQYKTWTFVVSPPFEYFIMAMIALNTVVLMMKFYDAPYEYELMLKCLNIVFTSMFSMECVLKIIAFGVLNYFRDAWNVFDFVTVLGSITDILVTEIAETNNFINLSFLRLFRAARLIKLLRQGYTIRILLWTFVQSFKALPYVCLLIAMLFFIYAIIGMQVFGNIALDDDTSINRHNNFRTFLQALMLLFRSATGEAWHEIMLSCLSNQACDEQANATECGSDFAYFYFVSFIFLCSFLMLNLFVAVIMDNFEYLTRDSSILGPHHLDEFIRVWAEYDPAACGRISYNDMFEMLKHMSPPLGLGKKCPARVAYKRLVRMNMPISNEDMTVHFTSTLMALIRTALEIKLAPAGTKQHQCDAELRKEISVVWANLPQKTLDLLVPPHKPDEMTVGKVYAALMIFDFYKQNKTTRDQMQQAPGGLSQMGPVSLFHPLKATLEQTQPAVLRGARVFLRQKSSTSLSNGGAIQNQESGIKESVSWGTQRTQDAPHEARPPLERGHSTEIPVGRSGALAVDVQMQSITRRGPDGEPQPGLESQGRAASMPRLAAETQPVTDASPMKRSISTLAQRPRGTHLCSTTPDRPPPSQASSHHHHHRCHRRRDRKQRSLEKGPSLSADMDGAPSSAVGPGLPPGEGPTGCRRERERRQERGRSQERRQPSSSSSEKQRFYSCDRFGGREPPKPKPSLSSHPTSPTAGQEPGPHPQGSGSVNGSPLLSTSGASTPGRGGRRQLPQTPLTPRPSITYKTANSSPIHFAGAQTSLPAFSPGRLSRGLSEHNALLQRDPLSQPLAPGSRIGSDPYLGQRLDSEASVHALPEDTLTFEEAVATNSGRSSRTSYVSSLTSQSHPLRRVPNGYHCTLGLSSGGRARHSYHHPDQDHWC
T2 sequence (Q02410 whole entry): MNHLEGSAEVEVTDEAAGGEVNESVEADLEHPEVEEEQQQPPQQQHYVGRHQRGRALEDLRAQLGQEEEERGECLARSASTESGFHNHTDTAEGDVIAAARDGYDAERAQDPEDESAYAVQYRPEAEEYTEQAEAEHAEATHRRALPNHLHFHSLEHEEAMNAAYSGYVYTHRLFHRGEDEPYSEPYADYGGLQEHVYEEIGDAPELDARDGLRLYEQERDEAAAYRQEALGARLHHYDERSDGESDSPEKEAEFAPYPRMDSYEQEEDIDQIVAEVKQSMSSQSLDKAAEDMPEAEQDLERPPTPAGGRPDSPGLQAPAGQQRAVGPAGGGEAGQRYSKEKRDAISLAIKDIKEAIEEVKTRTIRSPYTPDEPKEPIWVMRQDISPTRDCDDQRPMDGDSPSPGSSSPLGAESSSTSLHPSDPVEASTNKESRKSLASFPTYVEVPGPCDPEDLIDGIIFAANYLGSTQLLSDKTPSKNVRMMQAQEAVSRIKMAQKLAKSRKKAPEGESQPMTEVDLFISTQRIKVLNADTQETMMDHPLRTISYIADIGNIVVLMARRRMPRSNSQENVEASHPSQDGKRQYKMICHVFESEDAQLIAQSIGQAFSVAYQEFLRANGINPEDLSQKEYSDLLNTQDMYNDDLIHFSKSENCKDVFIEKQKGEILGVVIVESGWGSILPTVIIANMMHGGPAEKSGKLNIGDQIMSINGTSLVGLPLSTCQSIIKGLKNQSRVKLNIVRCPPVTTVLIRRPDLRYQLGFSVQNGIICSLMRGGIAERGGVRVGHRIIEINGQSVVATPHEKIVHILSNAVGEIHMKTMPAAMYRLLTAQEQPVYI
Data set [4] addresses T2, Voltage-gated N-type calcium channel alpha-1B subunit/Amyloid beta A4 precursor protein-binding family A member 1. It is filed as protein assay. This is another data set of the same source.
Data set [5] deals with T3, Carboxy-terminal domain RNA polymerase II polypeptide A small phosphatase 1 (Homo sapiens, UniProt Q9GZU7).
T3 sequence (Q9GZU7 whole entry): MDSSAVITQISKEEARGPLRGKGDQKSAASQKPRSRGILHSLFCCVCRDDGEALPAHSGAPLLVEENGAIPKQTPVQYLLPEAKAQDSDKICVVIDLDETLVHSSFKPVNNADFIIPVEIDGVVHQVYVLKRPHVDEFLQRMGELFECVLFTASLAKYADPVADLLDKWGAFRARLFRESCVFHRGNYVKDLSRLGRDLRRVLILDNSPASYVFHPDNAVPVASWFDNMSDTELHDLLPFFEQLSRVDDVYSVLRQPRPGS
Kind of data set: inhibitors of CTDSP1, concentration-response testing, biochemical assay, absorbance-based, actives from ultra-high-throughput screening (AID 540297). It is filed as functional.

Data set [6] is described as follows: inhibitors of firefly luciferase expression or activity, dose response, H4 neuroglioma cells, luminescence (AID 1990). It is filed as functional, cell-based.
Data set [7] has as its target Peroxisome proliferator-activated receptor gamma/Nuclear receptor coactivator 1 (Homo sapiens, UniProt P37231). Kind of data set: TR-FRET dose response biochemical High Throughput Screening assay for agonists of the steroid receptor coactivator 1 (SRC-1) recruitment by the peroxisome proliferator-activated receptor gamma (PPAR gamma): non-selective agonists. [Related pubchem assays (depositor defined):AID1300, AID1808, AID504735, AID631]. It is filed as protein assay. (TR-FRET usually uses a lanthanide donor and a delayed reading to cut background.)

Data set [8] in a line: Luminescence Cell-Based Dose Response HTS to Identify Inhibitors of 5'UTR Stem-Loop Driven Prion Protein mRNA Translation in H4 Neuroglioblastoma Cells. [Related pubchem assays: 1827 (Project Summary), 1813 (Primary HTS)]. It counts as functional.
The target of data set [9] is Peroxisome proliferator-activated receptor gamma/Nuclear receptor coactivator 3 (Homo sapiens, UniProt P37231). Kind of data set: TR-FRET dose response biochemical High Throughput Screening assay for agonists of the steroid receptor coactivator 3 (SRC-3) recruitment by the peroxisome proliferator-activated receptor gamma (PPAR gamma): non-selective agonists. [Related pubchem assays: 1301 (Confirmation screen.), 1048 (Primary screen.)]. It counts as functional.

Data set [10] is described as follows: inhibitors of SNCA 5'UTR-driven reporter translation, confirmation, H4 neuroglioma cells, luminescence (AID 1988). It is filed as functional, cell-based.
Data set [11] concerns the target Peroxisome proliferator-activated receptor gamma/Nuclear receptor coactivator 2 (Homo sapiens, UniProt P37231). Kind of data set: TR-FRET dose response biochemical High Throughput Screening assay for agonists of the steroid receptor coactivator 2 (SRC-2) recruitment by the peroxisome proliferator-activated receptor gamma (PPAR gamma): non-selective agonists. [Related pubchem assays: 1297, 1032 ]. It counts as functional.

For data set [12], the system named is HEK293. Kind of data set: inhibitors of LMP1-driven NF-kB reporter, dose response, cell-based, HEK293, luciferase, cherry-pick (AID 588343). It is filed as functional. The conditions noted are these: Homo sapiens.
Data set [13] has as its target T4, Heat shock factor protein 1 (Mus musculus, UniProt P38532).
T4 sequence (P38532 whole entry): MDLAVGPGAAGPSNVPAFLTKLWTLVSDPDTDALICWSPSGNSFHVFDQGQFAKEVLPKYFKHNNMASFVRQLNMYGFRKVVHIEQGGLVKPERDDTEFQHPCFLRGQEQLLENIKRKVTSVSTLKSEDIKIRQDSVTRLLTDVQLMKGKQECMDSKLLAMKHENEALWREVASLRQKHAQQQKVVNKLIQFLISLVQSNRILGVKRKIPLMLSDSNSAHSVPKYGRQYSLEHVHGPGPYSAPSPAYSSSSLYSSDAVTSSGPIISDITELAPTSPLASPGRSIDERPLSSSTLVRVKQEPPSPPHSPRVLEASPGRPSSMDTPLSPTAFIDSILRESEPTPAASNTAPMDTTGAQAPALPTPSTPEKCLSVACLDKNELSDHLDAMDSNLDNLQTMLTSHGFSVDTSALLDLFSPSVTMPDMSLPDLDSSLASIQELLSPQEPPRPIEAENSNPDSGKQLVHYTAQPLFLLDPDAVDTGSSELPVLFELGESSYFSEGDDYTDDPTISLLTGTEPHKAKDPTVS
In words: inhibition of MG132-induced HSE-luciferase signal, confirmation, cell-based, NIH3T3, luminescence, dose retest (AID 2382).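 Further: NIH3T3 fibroblasts with HSF1-driven luciferase reporter stressed by proteasome inhibitor MG132; luminescence from HSF1-driven luciferase expression after 8 hours of MG132 stress.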 It counts as functional.

For data set [14], the target named is T5, Short transient receptor potential channel 4 (Mus musculus, UniProt Q9QUQ5).
T5 sequence (Q9QUQ5 whole entry): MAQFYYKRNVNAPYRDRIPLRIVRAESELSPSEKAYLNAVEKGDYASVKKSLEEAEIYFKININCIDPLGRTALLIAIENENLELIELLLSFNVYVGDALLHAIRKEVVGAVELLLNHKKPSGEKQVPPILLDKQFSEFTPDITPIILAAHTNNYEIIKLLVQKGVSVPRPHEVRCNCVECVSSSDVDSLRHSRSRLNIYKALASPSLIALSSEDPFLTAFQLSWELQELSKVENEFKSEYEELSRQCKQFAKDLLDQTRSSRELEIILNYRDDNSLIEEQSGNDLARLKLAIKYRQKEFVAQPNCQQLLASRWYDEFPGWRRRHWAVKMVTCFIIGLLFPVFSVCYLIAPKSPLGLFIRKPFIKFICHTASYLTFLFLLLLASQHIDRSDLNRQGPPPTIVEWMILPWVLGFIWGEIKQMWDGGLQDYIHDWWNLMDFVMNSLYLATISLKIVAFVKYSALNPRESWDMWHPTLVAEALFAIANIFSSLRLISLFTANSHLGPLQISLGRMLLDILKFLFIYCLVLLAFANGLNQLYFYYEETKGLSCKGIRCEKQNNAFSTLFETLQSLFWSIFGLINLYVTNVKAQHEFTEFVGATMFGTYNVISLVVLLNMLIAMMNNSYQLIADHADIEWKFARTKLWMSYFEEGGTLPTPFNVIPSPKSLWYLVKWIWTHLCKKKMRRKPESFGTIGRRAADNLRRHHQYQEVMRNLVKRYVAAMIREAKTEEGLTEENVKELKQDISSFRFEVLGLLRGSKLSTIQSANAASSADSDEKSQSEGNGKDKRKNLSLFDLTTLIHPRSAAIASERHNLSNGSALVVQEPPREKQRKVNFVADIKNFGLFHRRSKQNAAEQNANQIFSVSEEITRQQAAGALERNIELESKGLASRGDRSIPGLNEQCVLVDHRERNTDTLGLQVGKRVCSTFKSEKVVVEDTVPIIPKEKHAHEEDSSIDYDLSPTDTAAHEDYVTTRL
Kind of data set: mouse TRPC4 channel inhibitors, dose response, cell-based, HEK293 TRPC4/mu-opioid, Fluo-4 calcium (AID 434942).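 Further: potency of inhibitors blocking the TRPC4 calcium response.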 It is filed as functional.

The target in data set [15] is DNA dC->dU-editing enzyme APOBEC-3A (Homo sapiens, UniProt P31941). In words: APOBEC3A DNA deaminase inhibitors, dose response, biochemical (AID 504722). It counts as functional.
DNA dC->dU-editing enzyme APOBEC-3A, sequence (P31941 whole entry): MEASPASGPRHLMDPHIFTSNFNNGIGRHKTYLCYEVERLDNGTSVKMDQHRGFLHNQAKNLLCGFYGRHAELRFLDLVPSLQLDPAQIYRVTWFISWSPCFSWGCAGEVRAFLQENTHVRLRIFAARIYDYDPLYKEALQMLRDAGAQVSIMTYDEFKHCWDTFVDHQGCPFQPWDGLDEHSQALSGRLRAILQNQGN
Data set [16] deals with DNA dC->dU-editing enzyme APOBEC-3G (Homo sapiens, UniProt Q9HC16). Kind of data set: Dose Response confirmation of small molecule APOBEC3G DNA Deaminase Inhibitors via a fluorescence-based single-stranded DNA deaminase assay. [Related pubchem assays (depositor defined):AID493012, AID493028]. It is filed as functional.
DNA dC->dU-editing enzyme APOBEC-3G, sequence (Q9HC16 whole entry): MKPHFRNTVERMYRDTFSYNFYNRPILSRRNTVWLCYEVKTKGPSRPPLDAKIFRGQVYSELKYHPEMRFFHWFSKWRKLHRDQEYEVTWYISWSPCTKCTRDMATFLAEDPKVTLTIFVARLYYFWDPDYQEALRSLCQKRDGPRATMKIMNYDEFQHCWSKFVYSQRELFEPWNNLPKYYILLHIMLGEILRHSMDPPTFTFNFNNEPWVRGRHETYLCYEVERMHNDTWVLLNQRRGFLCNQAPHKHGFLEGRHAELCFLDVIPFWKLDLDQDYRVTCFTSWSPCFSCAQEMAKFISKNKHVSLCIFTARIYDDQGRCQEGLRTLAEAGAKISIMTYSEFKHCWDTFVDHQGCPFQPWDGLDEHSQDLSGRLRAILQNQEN
Another data set has as its target Large T antigen (Simian virus 40, UniProt P03070). It counts as functional, Betapolyomavirus macacae.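 Further: Confirmatory-stage PubChem screen for compounds that inhibit SV40 T antigen.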
Data set [17] deals with FAD-linked sulfhydryl oxidase ALR (Homo sapiens, UniProt P55789). In words: inhibitors of human ALR sulfhydryl oxidase, dose response, biochemical, H2O2 detection, luminescence, cherry-pick (AID 493248).
FAD-linked sulfhydryl oxidase ALR, sequence (P55789 whole entry): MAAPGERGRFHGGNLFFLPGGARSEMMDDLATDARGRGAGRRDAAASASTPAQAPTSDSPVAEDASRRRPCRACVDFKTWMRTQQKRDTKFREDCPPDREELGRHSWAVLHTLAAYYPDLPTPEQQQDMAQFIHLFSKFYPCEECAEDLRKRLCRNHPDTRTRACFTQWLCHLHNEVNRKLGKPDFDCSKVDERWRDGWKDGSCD
Data set [18] concerns the target Dual specificity tyrosine-phosphorylation-regulated kinase 1A (Rattus norvegicus, UniProt Q63470). It is filed as biochemical, Homo sapiens.

Cytochrome P450 2D6, sequence (P10635 whole entry): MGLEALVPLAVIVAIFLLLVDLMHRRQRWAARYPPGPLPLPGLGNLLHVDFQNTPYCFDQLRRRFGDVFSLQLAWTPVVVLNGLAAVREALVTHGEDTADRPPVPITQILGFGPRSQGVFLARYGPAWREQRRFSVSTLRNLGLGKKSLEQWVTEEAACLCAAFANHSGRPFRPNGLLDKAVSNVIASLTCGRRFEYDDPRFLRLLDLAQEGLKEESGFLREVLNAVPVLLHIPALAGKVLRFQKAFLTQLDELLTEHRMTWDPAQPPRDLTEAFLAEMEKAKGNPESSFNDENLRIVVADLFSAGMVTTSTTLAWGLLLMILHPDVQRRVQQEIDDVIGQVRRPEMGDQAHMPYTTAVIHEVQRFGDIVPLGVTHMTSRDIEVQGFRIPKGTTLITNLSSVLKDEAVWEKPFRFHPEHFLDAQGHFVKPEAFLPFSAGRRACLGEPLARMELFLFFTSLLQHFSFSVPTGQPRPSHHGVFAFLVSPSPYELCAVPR
Cytochrome P450 3A4, sequence (P08684 whole entry): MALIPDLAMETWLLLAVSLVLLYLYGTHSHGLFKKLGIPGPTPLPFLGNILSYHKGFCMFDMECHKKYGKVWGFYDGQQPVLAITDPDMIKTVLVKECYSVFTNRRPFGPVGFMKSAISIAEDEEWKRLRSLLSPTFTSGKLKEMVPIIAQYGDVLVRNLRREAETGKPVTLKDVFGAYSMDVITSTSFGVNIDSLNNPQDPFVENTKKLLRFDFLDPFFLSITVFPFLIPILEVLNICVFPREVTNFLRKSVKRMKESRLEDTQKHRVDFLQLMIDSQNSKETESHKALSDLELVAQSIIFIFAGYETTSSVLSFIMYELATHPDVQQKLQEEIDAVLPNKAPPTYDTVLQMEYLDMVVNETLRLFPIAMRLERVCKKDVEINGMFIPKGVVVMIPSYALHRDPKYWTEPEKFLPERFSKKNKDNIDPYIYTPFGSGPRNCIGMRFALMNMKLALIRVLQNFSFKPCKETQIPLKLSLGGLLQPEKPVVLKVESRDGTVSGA

On to `O=C(Nc1cc(Cl)ccc1O)c1cc2n(n1)C(C(F)(F)F)CC(c1ccc3c(c1)OCO3)N2` (centres undefined), for which, on X-box-binding protein 1, the “Absolute IC50 (XBP1)” value was found to be 10 µM.
Turning to `COc1ccc(NC(=O)N2CC[C@@]3(CCCN(C(=O)c4cnccn4)C3)C2)cc1`, the AC50 is 3.16 µM (inconclusive) at Cytochrome P450 3A4 and “inconclusive” on Cytochrome P450 2D6.
Regarding `Cc1[nH]c(O)nc1C(=O)CCCCC(=O)O`, the IC50 in the data set with HEK293 [1] was > 89.3 µM (inactive). The EC50 in the data set with HEK293 [2] was 22.6 µM (inactive).
With `COc1ccc([C@@H]2CC(=O)c3c(O)cc(O[C@@H]4O[C@H](CO[C@@H]5O[C@@H](C)[C@H](O)[C@@H](O)[C@H]5O)[C@@H](O)[C@H](O)[C@H]4O)cc3O2)cc1O` [HESPERIDIN], the IC50 in data set [3] is 9.5 µM (active); in data set [4], > 50 µM (inactive); in data set [5], 20.7 µM (active).
In the case of `O=C(NCc1ccccn1)c1cc(-c2ccccc2Cl)on1`, the AC50 was 15.8 µM (inconclusive) at Cytochrome P450 3A4, “inconclusive” at Cytochrome P450 2D6 and “inconclusive” at Cytochrome P450 2C9.
With `CCCC1O[C@@H]2CC3C4CCC5=CC(=O)C=C[C@]5(C)C4C(OC(C)=O)C[C@]3(C)[C@]2(C(=O)COC(C)=O)O1` (some centres undefined), the EC50 in [6] was 22.1 µM (active); in data set [7], 6.65 µM (active); in [8], > 120 µM (not active); in data set [9], 4.66 µM (active); in data set [10] it was 18.8 µM (active); in data set [11], 8.71 µM (active).
Take `Cn1c(=O)cc(SCC(=O)N2CCN(Cc3ccc4c(c3)OCO4)CC2)c2ccccc21`: the EC50 was > 79.4 µM (inactive) in data set [7], > 79.4 µM (not active) in [9] and > 79.4 µM (not active) in data set [11].
For `CCOC(=O)N1CCC(NC(=O)CSc2cc(=O)n(C)c3ccccc23)CC1`, the EC50 in data set [7] is > 79.4 µM (inactive); in data set [9], > 79.4 µM (not active); in data set [11] it was > 79.4 µM (not active).
For `COc1ccccc1NC(=O)CC(c1ccc(OC(C)C)cc1)c1ccccc1OC` (centres undefined), the AC50 in the data set with HEK293 [12] was 194 µM (active).
With `C=CCN(CC(O)c1cccc([N+](=O)[O-])c1)C(C)CCc1ccccc1` (centres undefined), the 50% effective concentration (EC50) in data set [13] is > 195 µM (not active); in data set [14] it was 3.35 µM (active).
With `O=C1C2C(C(=O)N1/N=C/c1ccc(N3CCCCC3)o1)C1C=CC2C12CC2` (centres undefined), the IC50 in data set [3] is 7.24 µM (active); in data set [4], 20.1 µM (active).
In the case of `Cc1nnc(S)n1/N=C/c1c(O)ccc2ccccc12`, the IC50 was > 100 µM (inactive) in data set [15] and 2.42 µM (active) in data set [16].
Take `COc1cc(/C=N/n2c(S)nnc2-c2[nH]nc3c2CCC3)cc(OC)c1O`: the IC50 was 24 µM (active) at Large T antigen, > 100 µM (inactive) in data set [15] and 1.81 µM (active) in [16]. Besides, the AC50 in data set [17] is 0.011 µM (active).
As to `O=C(O)CCC(=O)c1ccc2ccc3cccc4ccc1c2c34`, the AC50 result at Cytochrome P450 2D6 was “inconclusive”.
As for `O=C1NC(=O)N(c2ccccc2)C(=O)/C1=C/c1c(-c2ccccc2)[nH]c2ccccc12`, the AC50 in [18] is 2.65 µM (active).
As to `CC1=C(C(=O)O)N2C(=O)[C@@H](NC(=O)CCCC(=O)O)[C@H]2SC1`, the IC50 in [3] was 34 µM (active); in [4] it was > 50 µM (inactive).
As for `CCCCNCC1C(Oc2ccc(Cl)cc2)C(=O)N1c1ccccc1C` (centres undefined), in data set [14], the EC50 is 4.22 µM (active).
